≈ marks a conversion by molar mass, not a printed value.
Key:
[1] = test system: normal human endothelial cells; parameters: method as in PMID 30284980; conditions: cited from earlier work
cancer cell lines = test system: cancer cell lines; parameters: method as in PMID 30284980; conditions: range depending on the cancer cell line; cited from earlier work
HeLa = assay: Neutral red uptake assay, HeLa; format: cell-based; conditions: Homo sapiens, 72 h incubation
Experimental: (§1) To all media (except for RPTEC), 2.5 µg mL^−1 amphotericin B, 100 U mL^−1 penicillin, and 100 µg mL^−1 streptomycin were added.
(§2) The cells were put in 96-well plates (1 × 10^5 cells per mL) of appropriate culture medium (100 µL per well). Before a general experiment, cells were attached for 24 h and then treated with various concentrations (500, 250, 100, and 10 µM) of pyrimidine derivatives and subsequently grown in 200 µL medium volume. […] The neutral red uptake assay was performed according to Repetto et al.. This method uses the ability of the living cells to accumulate dye in their lysosomes. […] Finally, the absorbance was measured at 540 nm using a Thermo Scientific™ Multiskan™ GO Microplate Spectrophotometer (Thermo Fisher).
(§3) The viability tests were conducted in quadruple wells (n = 4) for each condition. Values are presented as mean ± standard deviation (SD). Significant differences were calculated using one-way ANOVA, followed by post hoc comparison, and the half-maximal inhibitory concentration (IC50) was obtained by nonlinear regression using GraphPad Prism 9.1 for Windows, GraphPad Software, La Jolla, California, USA, www.graphpad.com.

AGS = assay: Neutral red uptake assay, AGS; format: cell-based; conditions: Homo sapiens, 72 h incubation
Experimental: as §1, §2, §3

Caco-2 = assay: Neutral red uptake assay, Caco-2; format: cell-based; conditions: Homo sapiens, 72 h incubation
Experimental: as §1, §2
as §3, with “www.graphpad.com. A p-value < 0.05 was considered statistically significant.” for “www.graphpad.com.”

Candida albicans = assay: Antimicrobial activity, broth microdilution MIC; format: cell-based; conditions: tested 256 to 0.5 µg mL^−1, 24 h, '-' not defined, no MIC in tested range, read-out: MIC C. albicans
A172 = assay: Neutral red uptake assay, A172; format: cell-based; conditions: Homo sapiens, A 172, 72 h incubation
Experimental: as §1, §2, §3

HepaRG = assay: Neutral red uptake assay, HepaRG; format: cell-based, human; conditions: 72 h incubation
Experimental: as §1, §2, §3

[2] = Neutral red uptake assay, viability of normal RPTEC cells; format: cell-based; conditions: human, 72 h treatment, vs control with 1% DMSO = 100%, read-out: Viability of RPTEC cell line
Experimental: For cytotoxicity assays, the following cell lines were used: human renal proximal tubule epithelial cells (RPTEC-MTOX1030), epithelioid cervix carcinoma (HeLa-93021013), colon adenocarcinoma (Caco-2-86010202), hepatocarcinoma (HepaRG-MTOX1010), gastric adenocarcinoma (AGS-89090402), and glioblastoma (A172-88062428) cells were cultured in appropriate media according to the European Collection of Authenticated Cell Cultures (ECACC) recommendation. To all media (except for RPTEC), 2.5 µg mL^−1 amphotericin B, 100 U mL^−1 penicillin, and 100 µg mL^−1 streptomycin were added. In addition, the RPTEC cell line was cultured in media with 30 μg mL^−1 gentamicin and 15 ng mL^−1 amphotericin B. Cell cultures were incubated at 37 °C in a humidified atmosphere with 5% CO2 for at least three passages until performing experiments. All cell lines were grown in monolayers; thus, detachment with 0.25% trypsin solution was required for further assays.
The cells were put in 96-well plates (1 × 10^5 cells per mL) of appropriate culture medium (100 µL per well). Before a general experiment, cells were attached for 24 h and then treated with various concentrations (500, 250, 100, and 10 µM) of pyrimidine derivatives and subsequently grown in 200 µL medium volume. […]. The cells were incubated for 24, 48, and 72 h at 37 °C in a humidified 5% CO2/95% air incubator. The neutral red uptake assay was performed according to Repetto et al.. This method uses the ability of the living cells to accumulate dye in their lysosomes. Briefly, at the end of each incubation time the cells were treated with neutral red solution (40 µg mL^−1) for 2 h at 37 °C. Afterwards, the cells were washed with PBS, and the incorporated dye was solubilized with the extraction solution (50% ethanol, 49% H2O, 1% glacial acetic acid). The plates were gently shaken for 30 min at 37 °C. Finally, the absorbance was measured at 540 nm using a Thermo Scientific™ Multiskan™ GO Microplate Spectrophotometer (Thermo Fisher).
as §3, with “www.graphpad.com. A p-value < 0.05 was considered statistically significant. All results were compared with the control with 1% DMSO, which was considered to be 100%.” for “www.graphpad.com.”

Acinetobacter baumannii = assay: Antimicrobial activity, broth microdilution MIC; format: cell-based; conditions: tested 256 to 0.5 µg mL^−1, 24 h, '-' not defined, no MIC in tested range
Enterococcus faecalis = assay: Antimicrobial activity, broth microdilution MIC; format: cell-based; conditions: tested 256 to 0.5 µg mL^−1, 24 h, '-' not defined, no MIC in tested range, read-out: MIC E. faecalis
[3] = test system: methicillin-resistant Staphylococcus aureus (MRSA); assay: Antimicrobial activity, broth microdilution MIC; format: cell-based; conditions: tested 256 to 0.5 µg mL^−1, 24 h, '-' not defined, no MIC in tested range
Escherichia coli = assay: Antimicrobial activity, broth microdilution MIC; format: cell-based; conditions: tested 256 to 0.5 µg mL^−1, 24 h, '-' not defined, no MIC in tested range
Klebsiella pneumoniae = assay: Antimicrobial activity, broth microdilution MIC; format: cell-based; conditions: tested 256 to 0.5 µg mL^−1, 24 h, '-' not defined, no MIC in tested range, read-out: MIC K. pneumoniae
Pseudomonas aeruginosa = assay: Antimicrobial activity, broth microdilution MIC; format: cell-based; conditions: tested 256 to 0.5 µg mL^−1, 24 h, '-' not defined, no MIC in tested range, read-out: MIC P. aeruginosa

SMILES | IC50 (HeLa) [µM] | IC50 (AGS) [µM] | melting point [°C] | IC50 (Caco-2) [µM] | IC50 (A172) [µM] | IC50 (HepaRG; Homo sapiens, HepaRG, 72 h) [µM] | other results
Cc1nc(-c2ccccc2)nc(SCc2ccc(Cl)cc2)c1C [4-[(4-chlorobenzyl)sulfanyl]-5,6-dimethyl-2-phenylpyrimidine] |  |  |  |  |  |  | survival of normal human endothelial cells [1]: 58%
Cc1nc(-c2ccccc2)nc(SCc2ccc(Cl)cc2)c1CO [5-hydroxymethyl derivative] |  |  |  |  |  |  | survival of normal human endothelial cells [1]: 1%; IC50 (cancer cell lines): 17 to 38 µM
Cc1nc(-c2ccccc2)nc(SCc2ccccc2)c1CO [Compound 3a, [4-(benzylsulfanyl)-6-methyl-2-phenylpyrimidin-5-yl]methanol] | > 250 | 209 | 144 to 145 | > 250 | > 250 | 201 | MIC (Candida albicans): 256 µg/mL (≈ 794 µM)
Cc1ccccc1CSc1nc(-c2ccccc2)nc(C)c1CO [Compound 3b, (4-methyl-6-{[(2-methylphenyl)methyl]sulfanyl}-2-phenylpyrimidin-5-yl)methanol] |  |  | 147 |  |  |  | viability at 72 h, 10 µM [2]: 91%; viability at 72 h, 100 µM [2]: 44%; viability at 72 h, 250 µM [2]: 46%; viability at 72 h, 500 µM [2]: 34%
Cc1nc(-c2ccccc2)nc(N)c1CO [Compound 3c, (4-amino-6-methyl-2-phenylpyrimidin-5-yl)methanol] | > 250 | > 250 | 177 to 178 | > 250 | > 250 | > 250 | 
CCNc1nc(-c2ccccc2)nc(C)c1CO [Compound 3d, [4-(ethylamino)-6-methyl-2-phenylpyrimidin-5-yl]methanol] | > 250 | > 250 | 191 | > 250 | > 250 | > 250 | 
CCCNc1nc(-c2ccccc2)nc(C)c1CO [Compound 3e, [4-methyl-2-phenyl-6-(propylamino)pyrimidin-5-yl]methanol] | > 250 | > 250 | 158 to 159 | > 250 | > 250 | > 250 | MIC (Acinetobacter baumannii): 256 µg/mL (≈ 995 µM); MIC (Enterococcus faecalis): 256 µg/mL (≈ 995 µM)
C=CCNc1nc(-c2ccccc2)nc(C)c1CO [Compound 3f, {4-methyl-2-phenyl-6-[(prop-2-en-1-yl)amino]pyrimidin-5-yl}methanol] | > 250 | > 250 | 174 to 175 | > 250 | > 250 | > 250 | MIC [3]: 256 µg/mL (≈ 1000 µM)
Cc1nc(-c2ccccc2)nc(NC(C)C)c1CO [Compound 3g, {4-methyl-2-phenyl-6-[(propan-2-yl)amino]pyrimidin-5-yl}methanol] | 209 | > 250 | 160 | > 250 | 147 | 183 | MIC (Acinetobacter baumannii): 256 µg/mL (≈ 995 µM); MIC (Escherichia coli): 128 µg/mL (≈ 497 µM)
Cc1nc(-c2ccccc2)nc(NC(C)(C)C)c1CO [Compound 3h, [4-(tert-butylamino)-6-methyl-2-phenylpyrimidin-5-yl]methanol] | > 250 | > 250 | 173 to 174 | > 250 | > 250 | 132 | MIC (Acinetobacter baumannii): 256 µg/mL (≈ 943 µM); IC50 (HepaRG): 132 µM
Cc1nc(-c2ccccc2)nc(NCCO)c1CO [Compound 3i, 2-{[5-(hydroxymethyl)-6-methyl-2-phenylpyrimidin-4-yl]amino}ethan-1-ol] | > 250 | > 250 | 141 | > 250 | > 250 | > 250 | 
Cc1nc(-c2ccccc2)nc(NC2CCCCC2)c1CO [Compound 3j, [4-(cyclohexylamino)-6-methyl-2-phenylpyrimidin-5-yl]methanol] |  |  | 143 |  |  |  | viability at 72 h, 10 µM [2]: 89%; viability at 72 h, 100 µM [2]: 28%; viability at 72 h, 250 µM [2]: 70%; viability at 72 h, 500 µM [2]: 16%
CNC(C)C1CCC(N)C(OC2C(N)CC(N)C(OC3OCC(C)(O)C(NC)C3O)C2O)O1 (stereo not drawn) [Gentamicin, reference compound] |  |  |  |  |  |  | MIC (Klebsiella pneumoniae): 2 µg/mL (≈ 4.19 µM); MIC (Escherichia coli): 2 µg/mL (≈ 4.19 µM)
C[C@H]1COc2c(N3CCN(C)CC3)c(F)cc3c(=O)c(C(=O)O)cn1c23 [Levofloxacin, reference compound] |  |  |  |  |  |  | MIC (Acinetobacter baumannii): 0.5 µg/mL (≈ 1.38 µM); MIC (Enterococcus faecalis): 4 µg/mL (≈ 11.1 µM); MIC (Pseudomonas aeruginosa): 1 µg/mL (≈ 2.77 µM); MIC [3]: 1 µg/mL (≈ 2.77 µM)

— paper PMC8618934, “Synthesis, Crystal Structure, and Biological Evaluation of Novel 5-Hydroxymethylpyrimidines” (Materials, 2021)
